Test results as given in patent publication EP4273147A1, “SUBSTITUTED SPIROLACTAMS, SALTS THEREOF AND THEIR USE AS HERBICIDALLY ACTIVE SUBSTANCES” (Bayer Aktiengesellschaft, priority 2022, dated 2023).

Experiments:
[1] = system: POAAN; assay: Herbicidal pre-emergence action (Table A7); type: in vivo, Poa annua; details: application rate 320 g/ha; visual grading after ca. 3 weeks
Outline: (§1)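 For this pre-emergence setup, sandy loam pots received seeds of one monocot and one dicot weed species each. The seeds were then covered with soil.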

[2] = system: TRZAS; assay: Post-emergence effects on crop plants (Table F2); type: in vivo, Triticum aestivum; details: application rate 320 g/ha, crop plant TRZAS
Description: (§2) 2 to 3 weeks after sowing, the test plants were sprayed in the single-leaf stage.

[3] = system: ECHCG; assay: Herbicidal pre-emergence action, section C (Table C6); type: in vivo, Echinochloa crus-galli; details: application rate 80 g/ha; visual grading after ca. 3 weeks
[4] = system: LOLRI; assay: Herbicidal pre-emergence action (Table A3); type: in vivo, Lolium rigidum; details: application rate 320 g/ha; visual grading after ca. 3 weeks
Outline: as §1

[5] = system: STEME; assay: Herbicidal pre-emergence action (Table A6); type: in vivo, Stellaria media; details: application rate 320 g/ha; visual grading after ca. 3 weeks
Outline: as §1

[6] = system: SETVI; assay: Herbicidal pre-emergence action, section C (Table C10); type: in vivo, Setaria viridis; details: application rate 80 g/ha; visual grading after ca. 3 weeks
[7] = system: ZEAMX; assay: Post-emergence effects on crop plants (Table F1); type: in vivo, Zea mays; details: application rate 80 g/ha, crop plant ZEAMX
Description: as §2

[8] = system: ALOMY; assay: Herbicidal pre-emergence action (Table A9); type: in vivo, Alopecurus myosuroides; details: application rate 1280 g/ha; visual grading after ca. 3 weeks
Outline: as §1

[9] = system: ABUTH; assay: Herbicidal pre-emergence action, section C (Table C1); type: in vivo, Abutilon theophrasti; details: application rate 320 g/ha; visual grading after ca. 3 weeks
Description: (§5) Seeds of mono- and dicotyledonous weed plants and crop plants were sown, in plastic or organic planting pots, in sandy loam and covered with soil. The compounds according to the invention, formulated in the form of wettable powders (WP) or as emulsifiable concentrates (EC), were applied to the surface of the covering soil as aqueous suspension or emulsion, with the addition of 0.5% of an additive, at an application rate of 600 1 of water/ha (converted). Following treatment, the pots were placed in a greenhouse and kept under optimum growth conditions for the test plants.

[10] = system: MATIN; assay: Herbicidal pre-emergence action, section C (Table C8); type: in vivo, Matricaria inodora; details: application rate 320 g/ha; visual grading after ca. 3 weeks
[11] = system: ECHCG; assay: Herbicidal post-emergence action, section E (Table E5); type: in vivo, Echinochloa crus-galli; details: application rate 320 g/ha; assessed visually after ca. 3 weeks
Description: as §2

[12] = system: AMARE; assay: Herbicidal pre-emergence action (Table A8); type: in vivo, Amaranthus retroflexus; details: application rate 1280 g/ha; visual grading after ca. 3 weeks vs untreated controls (100% = plants have died off, 0% = as control plants)
Outline: as §1

[13] = system: VERPE; assay: Herbicidal pre-emergence action, section C (Table C11); type: in vivo, Veronica persica; details: application rate 80 g/ha; visual grading after ca. 3 weeks
Description: as §5

[14] = system: VERPE; assay: Herbicidal pre-emergence action (Table A11); type: in vivo, Veronica persica; details: application rate 1280 g/ha; visual grading after ca. 3 weeks
Outline: as §1

[15] = system: SETVI; assay: Herbicidal post-emergence action (Table B8); type: in vivo, Setaria viridis; details: application rate 1280 g/ha
Outline: (§3)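 Treated at one-leaf stage (2–3 weeks after sowing in sandy loam, greenhouse-grown). Visual efficacy rating after about 3 weeks; 0% = like controls, 100% = complete kill.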

[16] = system: DIGSA; assay: Herbicidal post-emergence action (Table B12); type: in vivo, Digitaria sanguinalis; details: application rate 1280 g/ha
Protocol: (§4) Seeds of mono- and dicotyledonous weed plants were placed in plastic pots in sandy loam soil (doubly sown with in each case one species of mono- or dicotyledonous weed plants per pot), covered with soil and cultivated in a greenhouse under controlled growth conditions. 2 to 3 weeks after sowing, the test plants were treated at the one-leaf stage. […] After the test plants had been kept in the greenhouse under optimum growth conditions for about 3 weeks, the activity of the preparations was rated visually in comparison to untreated controls. For example, 100% activity = the plants have died, 0% activity = like control plants.

[17] = system: LOLRI; assay: Herbicidal post-emergence action (Table B5); type: in vivo, Lolium rigidum; details: application rate 1280 g/ha; rated visually after about 3 weeks
Protocol: as §4

[18] = system: SETVI; assay: Herbicidal pre-emergence action (Table A5); type: in vivo, Setaria viridis; details: application rate 1280 g/ha; visual grading after ca. 3 weeks
Outline: as §1

[19] = system: KCHSC; assay: Herbicidal post-emergence action (Table B4); type: in vivo, Kochia scoparia; details: application rate 1280 g/ha; rated visually after about 3 weeks
Protocol: as §4

[20] = system: KCHSC; assay: Herbicidal pre-emergence action (Table A10); type: in vivo, Kochia scoparia; details: application rate 320 g/ha; visual grading after ca. 3 weeks
Outline: as §1

[21] = system: ALOMY; assay: Herbicidal post-emergence action, section E (Table E2); type: in vivo, Alopecurus myosuroides; details: application rate 320 g/ha; assessed visually after ca. 3 weeks
Description: as §2

[22] = system: DIGSA; assay: Herbicidal pre-emergence action, section C (Table C5); type: in vivo, Digitaria sanguinalis; details: application rate 80 g/ha; visual grading after ca. 3 weeks
Description: as §5

[23] = system: ECHCG; assay: Herbicidal post-emergence action (Table B3); type: in vivo, Echinochloa crus-galli; details: application rate 1280 g/ha; rated visually after about 3 weeks
Outline: as §3

[24] = system: ZEAMX; assay: Pre-emergence effects on crop plants (Table D1); type: in vivo, Zea mays; details: crop plant; application rate 80 g/ha; visual grading after ca. 3 weeks
[25] = system: BRSNW; assay: Post-emergence effects on crop plants (Table F5); type: in vivo, Brassica napus; details: application rate 320 g/ha, crop plant BRSNW
Description: as §2

[26] = system: ORYZA; assay: Post-emergence effects on crop plants (Table F3); type: in vivo, Oryza sativa; details: application rate 320 g/ha, crop plant ORYZA
Description: as §2

[27] = system: MATIN; assay: Herbicidal pre-emergence action (Table A4); type: in vivo, Matricaria inodora; details: application rate 320 g/ha; visual grading after ca. 3 weeks
Outline: as §1

[28] = system: VERPE; assay: Herbicidal post-emergence action, section E (Table E9); type: in vivo, Veronica persica; details: application rate 320 g/ha; assessed visually after ca. 3 weeks
Description: as §2

[29] = system: ABUTH; assay: Herbicidal post-emergence action (Table B1); type: in vivo, Abutilon theophrasti; details: application rate 1280 g/ha; treated at one-leaf stage; rated visually after about 3 weeks vs untreated controls (100% = plants have died, 0% = like control plants)
Outline: as §3

[30] = system: VIOTR; assay: Herbicidal pre-emergence action, section C (Table C12); type: in vivo, Viola tricolor; details: application rate 80 g/ha; visual grading after ca. 3 weeks
Description: as §5

[31] = system: MATIN; assay: Herbicidal post-emergence action (Table B6); type: in vivo, Matricaria inodora; details: application rate 1280 g/ha; rated visually after about 3 weeks
Outline: as §3

[32] = system: ABUTH; assay: Herbicidal pre-emergence action (Table A1); type: in vivo, Abutilon theophrasti; details: application rate 1280 g/ha; visual grading after ca. 3 weeks vs untreated controls (100% = plants have died off, 0% = as control plants)
Outline: as §1

[33] = system: LOLRI; assay: Herbicidal pre-emergence action, section C (Table C7); type: in vivo, Lolium rigidum; details: application rate 80 g/ha; visual grading after ca. 3 weeks
[34] = system: ORYZA; assay: Pre-emergence effects on crop plants (Table D3); details: crop plant; application rate 80 g/ha; visual grading after ca. 3 weeks
[35] = system: GLXMA; assay: Post-emergence effects on crop plants (Table F4); type: in vivo, Glycine max; details: application rate 80 g/ha, crop plant GLXMA
Description: as §2

[36] = system: DIGSA; assay: Herbicidal pre-emergence action (Table A12); type: in vivo, Digitaria sanguinalis; details: application rate 320 g/ha; visual grading after ca. 3 weeks
Outline: as §1

[37] = system: ALOMY; assay: Herbicidal pre-emergence action, section C (Table C2); type: in vivo, Alopecurus myosuroides; details: application rate 80 g/ha; visual grading after ca. 3 weeks
[38] = system: ECHCG; assay: Herbicidal pre-emergence action (Table A2); type: in vivo, Echinochloa crus-galli; details: application rate 320 g/ha; visual grading after ca. 3 weeks
Outline: as §1

[39] = system: VERPE; assay: Herbicidal post-emergence action (Table B10); type: in vivo, Veronica persica; details: application rate 1280 g/ha
Outline: as §3

Q: How did the “pre-emergence activity against POAAN” value [1] turn out when `O=C1N(Cc2cccc(F)c2F)CCC12CCCN(Cc1c(F)cccc1F)C2=O` (racemic) [I-015] was run?
A: The value was 100%.

Q: What about the “post-emergence activity against TRZAS” value [2] of the same molecule?
A: Its value is 0%.

Q: And the “pre-emergence activity against ECHCG” value [3]?
A: Its value is 100%.

Q: What about the “pre-emergence activity against LOLRI” value [4] of the same molecule?
A: The value was 100%.

Q: What about the “pre-emergence activity against STEME” value [5] of the same molecule?
A: Its value is 90%.

Q: What about the “pre-emergence activity against SETVI” value [6] of the same molecule?
A: The value was 90%.

Q: What about the “post-emergence activity against ZEAMX” value [7] of the same molecule?
A: Its value is 0%.

Q: And the “pre-emergence activity against ALOMY” value [8]?
A: Its value is 90%.

Q: What about the “pre-emergence activity against ABUTH” value [9] of the same molecule?
A: Its value is 90%.

Q: And the “pre-emergence activity against MATIN” value [10]?
A: The value was 90%.

Q: What about the “post-emergence activity against ECHCG” value [11] of the same molecule?
A: The value was 90%.

Q: And the “pre-emergence activity against AMARE” value [12]?
A: Its value is 90%.

Q: And the “pre-emergence activity against VERPE” value [13]?
A: The value was 90%.

Q: What about the “pre-emergence activity against VERPE” value [14] of the same molecule?
A: Its value is 90%.

Q: What about the “post-emergence activity against SETVI” value [15] of the same molecule?
A: Its value is 90%.

Q: What about the “post-emergence activity against DIGSA” value [16] of the same molecule?
A: The value was 90%.

Q: And the “post-emergence activity against LOLRI” value [17]?
A: The value was 90%.

Q: What about the “pre-emergence activity against SETVI” value [18] of the same molecule?
A: Its value is 100%.

Q: And the “post-emergence activity against KCHSC” value [19]?
A: Its value is 90%.

Q: And the “pre-emergence activity against KCHSC” value [20]?
A: The value was 90%.

Q: And the “post-emergence activity against ALOMY” value [21]?
A: Its value is 80%.

Q: And the “pre-emergence activity against DIGSA” value [22]?
A: Its value is 90%.

Q: And the “post-emergence activity against ECHCG” value [23]?
A: Its value is 90%.

Q: And the “pre-emergence activity against ZEAMX” value [24]?
A: The value was 0%.

Q: What about the “post-emergence activity against BRSNW” value [25] of the same molecule?
A: The value was 0%.

Q: And the “post-emergence activity against ORYZA” value [26]?
A: The value was 0%.

Q: And the “pre-emergence activity against MATIN” value [27]?
A: Its value is 90%.

Q: What about the “post-emergence activity against VERPE” value [28] of the same molecule?
A: The value was 80%.

Q: What about the “post-emergence activity against ABUTH” value [29] of the same molecule?
A: Its value is 90%.

Q: And the “pre-emergence activity against VIOTR” value [30]?
A: Its value is 90%.

Q: And the “post-emergence activity against MATIN” value [31]?
A: Its value is 90%.

Q: What about the “pre-emergence activity against ABUTH” value [32] of the same molecule?
A: Its value is 90%.

Q: And the “pre-emergence activity against LOLRI” value [33]?
A: Its value is 100%.

Q: And the “pre-emergence activity against ORYZA” value [34]?
A: The value was 0%.

Q: What about the “post-emergence activity against GLXMA” value [35] of the same molecule?
A: The value was 20%.

Q: What about the “pre-emergence activity against DIGSA” value [36] of the same molecule?
A: Its value is 100%.

Q: And the “pre-emergence activity against ALOMY” value [37]?
A: The value was 90%.

Q: What about the “pre-emergence activity against ECHCG” value [38] of the same molecule?
A: Its value is 100%.

Q: What about the “post-emergence activity against VERPE” value [39] of the same molecule?
A: The value was 90%.
